# From ChEMBL document CHEMBL5465560, “Selectivity Literature for EUbOPEN Chemogenomic Library” (2024)
# Experiments:
# [1] = biological target: T1, Serine/threonine-protein kinase DCLK3 (Homo sapiens) (UniProt Q9C098); assay: Selectivity interaction (KinomeScan (DiscoverX)) EUB0001049a DCLK3; details: at 1 µM
# T1 sequence (whole entry): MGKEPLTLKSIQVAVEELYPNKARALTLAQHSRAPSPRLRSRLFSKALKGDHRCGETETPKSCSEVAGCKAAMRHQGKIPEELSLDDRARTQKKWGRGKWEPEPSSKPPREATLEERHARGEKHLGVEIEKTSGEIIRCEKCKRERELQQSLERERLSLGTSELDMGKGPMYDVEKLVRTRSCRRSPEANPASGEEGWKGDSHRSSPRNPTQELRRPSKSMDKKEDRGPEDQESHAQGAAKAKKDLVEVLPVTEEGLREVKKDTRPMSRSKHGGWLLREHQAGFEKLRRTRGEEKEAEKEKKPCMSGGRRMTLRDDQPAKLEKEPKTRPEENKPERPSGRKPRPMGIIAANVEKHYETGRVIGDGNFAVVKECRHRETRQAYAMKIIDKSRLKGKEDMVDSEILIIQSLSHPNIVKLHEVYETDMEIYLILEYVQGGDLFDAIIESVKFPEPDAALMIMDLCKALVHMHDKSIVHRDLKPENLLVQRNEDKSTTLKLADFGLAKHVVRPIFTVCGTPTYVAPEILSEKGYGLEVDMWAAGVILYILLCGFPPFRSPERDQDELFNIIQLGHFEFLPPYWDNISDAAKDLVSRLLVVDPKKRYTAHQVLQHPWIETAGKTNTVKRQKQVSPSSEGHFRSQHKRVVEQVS
# [2] = biological target: T2, Serine/threonine-protein kinase LATS2 (Homo sapiens) (UniProt Q9NRM7); assay: Selectivity interaction (KinomeScan (DiscoverX)) EUB0001049a LATS2; details: at 1 µM
# T2 sequence (whole entry): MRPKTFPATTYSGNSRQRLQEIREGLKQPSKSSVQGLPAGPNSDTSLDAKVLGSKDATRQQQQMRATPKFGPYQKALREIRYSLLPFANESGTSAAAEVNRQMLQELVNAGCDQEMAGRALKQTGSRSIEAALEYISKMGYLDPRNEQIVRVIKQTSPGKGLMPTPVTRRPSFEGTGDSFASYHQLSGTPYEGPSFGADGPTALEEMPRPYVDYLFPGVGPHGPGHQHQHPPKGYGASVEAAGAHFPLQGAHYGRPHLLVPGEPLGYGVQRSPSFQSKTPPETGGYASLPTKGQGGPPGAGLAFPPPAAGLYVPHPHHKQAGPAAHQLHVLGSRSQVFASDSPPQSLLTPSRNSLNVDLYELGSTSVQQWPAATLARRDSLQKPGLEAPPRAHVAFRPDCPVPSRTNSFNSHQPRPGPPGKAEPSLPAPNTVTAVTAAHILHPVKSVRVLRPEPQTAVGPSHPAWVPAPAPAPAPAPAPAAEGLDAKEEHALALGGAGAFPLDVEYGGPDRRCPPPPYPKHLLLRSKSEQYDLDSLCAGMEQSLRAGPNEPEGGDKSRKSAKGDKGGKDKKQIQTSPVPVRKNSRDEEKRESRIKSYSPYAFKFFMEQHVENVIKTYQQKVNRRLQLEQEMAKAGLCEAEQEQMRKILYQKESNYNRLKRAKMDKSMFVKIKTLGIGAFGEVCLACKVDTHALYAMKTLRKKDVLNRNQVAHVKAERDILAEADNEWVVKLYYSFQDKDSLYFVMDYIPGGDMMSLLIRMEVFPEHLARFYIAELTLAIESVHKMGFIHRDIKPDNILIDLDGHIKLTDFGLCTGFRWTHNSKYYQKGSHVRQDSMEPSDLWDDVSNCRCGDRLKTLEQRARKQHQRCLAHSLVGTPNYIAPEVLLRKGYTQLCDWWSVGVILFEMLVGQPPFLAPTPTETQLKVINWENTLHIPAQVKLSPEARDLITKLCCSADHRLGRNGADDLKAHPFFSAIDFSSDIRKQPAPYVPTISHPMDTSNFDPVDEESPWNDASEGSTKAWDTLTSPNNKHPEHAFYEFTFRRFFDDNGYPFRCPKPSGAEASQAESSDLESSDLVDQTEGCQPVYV
# [3] = biological target: Serine/threonine-protein kinase pim-1 (Homo sapiens, UniProt P11309); assay: Selectivity interaction (Kinase panel (literature)) EUB0001199aCl PIM1; details: at 1 µM
# Chain of Serine/threonine-protein kinase pim-1 (P11309 whole entry, looked up): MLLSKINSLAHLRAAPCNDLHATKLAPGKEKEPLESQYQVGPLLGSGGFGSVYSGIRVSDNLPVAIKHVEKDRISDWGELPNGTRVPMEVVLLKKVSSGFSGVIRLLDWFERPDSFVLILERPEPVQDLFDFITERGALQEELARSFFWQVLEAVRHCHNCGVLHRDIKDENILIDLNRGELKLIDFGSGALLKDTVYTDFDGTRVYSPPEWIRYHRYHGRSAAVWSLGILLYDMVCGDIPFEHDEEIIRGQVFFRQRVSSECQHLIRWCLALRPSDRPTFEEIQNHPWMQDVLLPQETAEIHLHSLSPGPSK
# [4] = biological target: Cyclin-dependent kinase 2 (Homo sapiens, UniProt P24941); assay: Selectivity interaction (ActivX KiNativ screen (kinase selectivity in THP-1 cell lysates)) EUB0000639a CDK2; assay type: subcellular; details: lysate, at 5 µM
# [5] = biological target: T3, Mitogen-activated protein kinase kinase kinase kinase 2 (Homo sapiens) (UniProt Q12851); assay: Selectivity interaction (KinomeScan (DiscoverX)) EUB0000092b MAP4K2; details: at 10 µM
# T3 sequence (whole entry): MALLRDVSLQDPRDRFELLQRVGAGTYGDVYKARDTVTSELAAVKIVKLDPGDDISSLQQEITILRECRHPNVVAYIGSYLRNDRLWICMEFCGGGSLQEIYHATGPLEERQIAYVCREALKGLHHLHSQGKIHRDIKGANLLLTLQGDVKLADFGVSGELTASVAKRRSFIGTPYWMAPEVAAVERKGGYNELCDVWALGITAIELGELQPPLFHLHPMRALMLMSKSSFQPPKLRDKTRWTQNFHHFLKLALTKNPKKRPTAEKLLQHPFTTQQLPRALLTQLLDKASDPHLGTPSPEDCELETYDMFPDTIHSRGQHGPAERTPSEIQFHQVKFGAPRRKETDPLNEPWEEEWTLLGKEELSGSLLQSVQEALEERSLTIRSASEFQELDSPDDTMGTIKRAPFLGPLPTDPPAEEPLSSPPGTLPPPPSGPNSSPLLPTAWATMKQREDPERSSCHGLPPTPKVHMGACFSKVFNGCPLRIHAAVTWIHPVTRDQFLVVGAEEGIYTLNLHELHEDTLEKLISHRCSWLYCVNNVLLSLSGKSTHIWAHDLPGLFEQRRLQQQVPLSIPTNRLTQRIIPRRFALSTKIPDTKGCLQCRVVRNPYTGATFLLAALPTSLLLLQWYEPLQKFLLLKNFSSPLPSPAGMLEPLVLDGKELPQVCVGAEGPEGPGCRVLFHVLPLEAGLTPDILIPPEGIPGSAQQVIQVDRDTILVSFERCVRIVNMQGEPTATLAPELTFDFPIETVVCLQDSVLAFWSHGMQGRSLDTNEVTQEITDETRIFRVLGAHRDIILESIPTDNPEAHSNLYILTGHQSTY
smiles,measurement,setting,value
COc1cc(Nc2nc(C)cc(-c3cnn4nc(OC)ccc34)n2)cc(C(F)(F)F)c1,% of control,[1],100%
same,% of control,[2],71%
CN1Cc2nccc(-c3cn(C)nc3-c3ccc(F)cc3)c2C1=O,% of inhibition,[3],4%
CC[C@@H]1[C@H](F)C(=O)N[C@@H]1COc1nccc2cc(C(N)=O)c(OC)cc12 [ZIMLOVISERTIB],% of inhibition,[4],3%
CCC(=O)N1CCN(c2ccc(-n3c(=O)ccc4cnc5ccc(-c6cnc7ccccc7c6)cc5c43)cc2C(F)(F)F)CC1,% of control,[5],35%
